# From patent US20140227366A1, “CARRIER MATERIAL FOR IMPROVING THE PERSISTANCE OF BIOCIDES” (priority 2011, published 2014)
# Tested on: aphids (Aphis craccivora)
# Test: Efficacy/penetration depth into soils: aphid mortality on chickpeas planted in soil zones from a watered soil column
# Format: in vivo
# Conditions: top 6 cm soil with 0.5 mg/ai TMX, watering rate 255 l/m^2, chickpeas infected with Aphis craccivora, average of multiple experiments
# Method: The penetration depth of TMX with and without the improvement system was investigated using the test setup described below.
# In this connection, a cylinder (diameter approx. 5.5 cm) was filled to approx. 21 cm with liquid-saturated soil. The soil was divided into three zones of 7 cm each, which were called Zone I (uppermost soil layer), Zone II (middle soil layer), and Zone III (bottommost soil layer).
# Subsequently, the cylinder was filled up with 6 cm soil that had been mixed once with 0.5 mg/ai TMX (comparison test), and once with 6 cm soil with 0.5 mg/ai TMX and 2 kg/m^2 improvement system (invention example).
# The cylinder was now watered (watering rate 255 l/m^2) until the water had reached the bottom, i.e. complete watering had been achieved.
# Subsequently, the soil of Zone I (uppermost zone) to Zone III (bottommost zone) was removed, and chickpeas that had been infected with aphids (Aphis craccivora) were planted in the soil. Now the mortality rate of the aphids was measured, as listed in Table I (average values on the basis of multiple experiments).
compound,measurement,setting,value
"CN1COCN(Cc2cnc(Cl)s2)/C1=N/[N+](=O)[O-] [Comparison example, 3-[(2-chloro-1,3-thiazol-5-yl)methyl]-5-methyl-N-nitro-1,3,5-oxadioazinan-4-imine]","mortality rate of the aphids, Zone I","Zone I (uppermost soil layer, 7 cm)",93%
same,"mortality rate of the aphids, Zone II","Zone II (middle soil layer, 7 cm)",70%
same,"mortality rate of the aphids, Zone III","Zone III (bottommost soil layer, 7 cm)",5%
